Experimental data published in US20150087627A1, “COMBINATION OF KINASE INHIBITORS AND USES THEREOF” (Intellikine LLC, priority 2011, published 2015).
pIC50: −log10 of the molar value.

Experiments:
Assay type in all cases: biochemical
PI3K α (p110α/p85α) = biological target: T1, PI3K α (p110α/p85α) (Homo sapiens, UniProt P42336); experiment: PI 3-Kinase (human) HTRF assay, PI3K α; conditions: read-out: PI3K α IC50
T1 construct: purchased Upstate / Millipore Corporation

PI3K β (p110β/p85α) = biological target: T2, PI3K β (p110β/p85α) (Homo sapiens, UniProt P42338); experiment: PI 3-Kinase (human) HTRF assay, PI3K β; conditions: read-out: PI3K β IC50
T2 construct: purchased Upstate / Millipore Corporation
T2 sequence (P42338 whole entry): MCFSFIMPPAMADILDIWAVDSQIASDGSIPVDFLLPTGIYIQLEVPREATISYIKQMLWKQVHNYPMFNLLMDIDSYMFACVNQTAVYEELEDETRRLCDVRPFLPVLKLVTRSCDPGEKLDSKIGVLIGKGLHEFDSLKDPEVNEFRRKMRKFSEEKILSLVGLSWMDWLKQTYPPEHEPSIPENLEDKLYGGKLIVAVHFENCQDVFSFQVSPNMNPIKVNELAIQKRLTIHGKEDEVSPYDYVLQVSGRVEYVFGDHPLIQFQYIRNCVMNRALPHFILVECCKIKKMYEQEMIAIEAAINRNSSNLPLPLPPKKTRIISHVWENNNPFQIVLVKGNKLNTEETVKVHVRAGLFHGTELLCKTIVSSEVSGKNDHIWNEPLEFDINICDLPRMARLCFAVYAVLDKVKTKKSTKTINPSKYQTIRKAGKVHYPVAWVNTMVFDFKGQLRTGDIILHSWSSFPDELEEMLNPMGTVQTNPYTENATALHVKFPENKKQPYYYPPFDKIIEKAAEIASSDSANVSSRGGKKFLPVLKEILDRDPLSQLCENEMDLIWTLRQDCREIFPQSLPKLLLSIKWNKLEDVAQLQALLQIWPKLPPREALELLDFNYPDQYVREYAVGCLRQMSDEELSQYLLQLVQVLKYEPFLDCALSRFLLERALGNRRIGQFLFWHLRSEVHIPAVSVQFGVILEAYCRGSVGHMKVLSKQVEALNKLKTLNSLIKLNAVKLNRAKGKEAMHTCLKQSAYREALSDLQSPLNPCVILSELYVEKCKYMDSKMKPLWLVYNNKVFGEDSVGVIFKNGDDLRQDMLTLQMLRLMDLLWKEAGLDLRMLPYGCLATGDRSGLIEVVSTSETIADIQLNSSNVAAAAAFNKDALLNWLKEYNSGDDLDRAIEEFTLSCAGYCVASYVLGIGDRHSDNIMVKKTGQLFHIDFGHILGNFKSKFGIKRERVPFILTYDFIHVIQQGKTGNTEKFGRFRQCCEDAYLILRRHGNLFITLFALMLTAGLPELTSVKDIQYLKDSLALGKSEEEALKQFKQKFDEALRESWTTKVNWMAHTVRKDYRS
T2 sequence (P27986 whole entry partner): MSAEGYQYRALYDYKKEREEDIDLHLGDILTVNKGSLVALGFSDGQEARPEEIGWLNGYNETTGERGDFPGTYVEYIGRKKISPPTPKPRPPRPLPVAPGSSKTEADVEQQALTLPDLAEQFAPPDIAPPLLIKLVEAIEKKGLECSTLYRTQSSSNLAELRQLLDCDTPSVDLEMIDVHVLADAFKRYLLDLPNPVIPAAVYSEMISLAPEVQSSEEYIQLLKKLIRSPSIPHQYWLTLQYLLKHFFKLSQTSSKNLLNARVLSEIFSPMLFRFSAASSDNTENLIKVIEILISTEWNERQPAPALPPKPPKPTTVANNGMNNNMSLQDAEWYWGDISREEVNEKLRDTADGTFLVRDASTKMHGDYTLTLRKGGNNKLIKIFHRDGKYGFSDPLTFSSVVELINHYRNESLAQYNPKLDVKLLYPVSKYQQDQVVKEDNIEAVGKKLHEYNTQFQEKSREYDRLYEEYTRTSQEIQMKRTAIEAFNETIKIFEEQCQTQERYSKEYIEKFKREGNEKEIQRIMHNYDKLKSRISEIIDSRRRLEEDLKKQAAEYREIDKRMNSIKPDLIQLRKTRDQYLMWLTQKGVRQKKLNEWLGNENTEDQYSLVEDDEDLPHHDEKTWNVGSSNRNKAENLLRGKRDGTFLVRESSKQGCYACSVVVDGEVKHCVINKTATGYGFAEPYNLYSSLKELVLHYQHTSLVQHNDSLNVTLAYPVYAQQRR
Experimental: Briefly, the assay is a time resolved FRET assay that indirectly measures PIP3 product formed by the activity of a PI3-K. The kinase reaction is performed in a microtiter plate (e.g., a 384 well microtiter plate). The total reaction volume is approximately 20 ul per well. In the first step, each well receives 2 ul of test compound in 20% dimethylsulphoxide resulting in a 2% DMSO final concentration. […] The plate is sealed and incubated for 15 minutes at room temperature. […] The plate is sealed and incubated for 1 hour at room temperature. The reaction is stopped by adding 5 ul of Stop Solution per well and then 5 ul of Detection Mix is added per well. The plate is sealed, incubated for 1 hour at room temperature, and then read on an appropriate plate reader. Data is analyzed and IC50s are generated using GraphPad Prism 5.

PI3K γ (p110γ) = biological target: T3, PI3K γ (p110γ) (Homo sapiens, UniProt P48736); experiment: PI 3-Kinase (human) HTRF assay, PI3K γ; conditions: read-out: PI3K γ IC50
T3 construct: purchased Upstate / Millipore Corporation
T3 sequence (P48736 whole entry): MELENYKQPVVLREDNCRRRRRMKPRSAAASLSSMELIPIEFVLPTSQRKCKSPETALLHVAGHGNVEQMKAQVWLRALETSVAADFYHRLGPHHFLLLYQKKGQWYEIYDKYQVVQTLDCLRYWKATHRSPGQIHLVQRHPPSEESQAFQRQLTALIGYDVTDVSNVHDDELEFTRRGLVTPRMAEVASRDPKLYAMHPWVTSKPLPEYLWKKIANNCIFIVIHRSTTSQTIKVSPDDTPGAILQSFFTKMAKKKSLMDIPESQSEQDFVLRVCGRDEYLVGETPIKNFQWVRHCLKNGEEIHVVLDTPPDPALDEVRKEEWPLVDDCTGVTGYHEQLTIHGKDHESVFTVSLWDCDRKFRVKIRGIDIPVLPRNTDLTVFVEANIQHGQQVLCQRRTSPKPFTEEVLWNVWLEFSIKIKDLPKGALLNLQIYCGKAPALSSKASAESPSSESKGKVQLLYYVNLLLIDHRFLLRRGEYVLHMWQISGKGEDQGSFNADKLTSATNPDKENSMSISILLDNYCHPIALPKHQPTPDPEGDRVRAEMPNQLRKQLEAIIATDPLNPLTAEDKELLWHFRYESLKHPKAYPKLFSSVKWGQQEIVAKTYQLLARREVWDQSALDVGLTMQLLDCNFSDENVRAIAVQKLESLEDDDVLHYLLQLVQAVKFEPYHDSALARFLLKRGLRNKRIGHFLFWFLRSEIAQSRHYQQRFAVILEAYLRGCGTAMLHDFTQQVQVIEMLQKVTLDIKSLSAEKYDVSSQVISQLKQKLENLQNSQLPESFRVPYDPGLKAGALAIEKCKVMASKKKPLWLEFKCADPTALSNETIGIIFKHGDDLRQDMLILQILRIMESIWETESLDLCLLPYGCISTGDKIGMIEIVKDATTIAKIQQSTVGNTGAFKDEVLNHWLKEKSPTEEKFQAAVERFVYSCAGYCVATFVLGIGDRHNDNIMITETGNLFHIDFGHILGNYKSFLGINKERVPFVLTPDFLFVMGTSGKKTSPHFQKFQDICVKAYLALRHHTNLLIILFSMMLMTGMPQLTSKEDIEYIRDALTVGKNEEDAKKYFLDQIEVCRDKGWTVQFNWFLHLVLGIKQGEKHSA

PI3K δ = biological target: T4, PI3K δ (Homo sapiens, UniProt O00329); experiment: PI 3-Kinase (human) HTRF assay, PI3K δ; conditions: read-out: PI3K δ IC50
T4 construct: purchased Upstate / Millipore Corporation
T4 sequence (O00329 whole entry): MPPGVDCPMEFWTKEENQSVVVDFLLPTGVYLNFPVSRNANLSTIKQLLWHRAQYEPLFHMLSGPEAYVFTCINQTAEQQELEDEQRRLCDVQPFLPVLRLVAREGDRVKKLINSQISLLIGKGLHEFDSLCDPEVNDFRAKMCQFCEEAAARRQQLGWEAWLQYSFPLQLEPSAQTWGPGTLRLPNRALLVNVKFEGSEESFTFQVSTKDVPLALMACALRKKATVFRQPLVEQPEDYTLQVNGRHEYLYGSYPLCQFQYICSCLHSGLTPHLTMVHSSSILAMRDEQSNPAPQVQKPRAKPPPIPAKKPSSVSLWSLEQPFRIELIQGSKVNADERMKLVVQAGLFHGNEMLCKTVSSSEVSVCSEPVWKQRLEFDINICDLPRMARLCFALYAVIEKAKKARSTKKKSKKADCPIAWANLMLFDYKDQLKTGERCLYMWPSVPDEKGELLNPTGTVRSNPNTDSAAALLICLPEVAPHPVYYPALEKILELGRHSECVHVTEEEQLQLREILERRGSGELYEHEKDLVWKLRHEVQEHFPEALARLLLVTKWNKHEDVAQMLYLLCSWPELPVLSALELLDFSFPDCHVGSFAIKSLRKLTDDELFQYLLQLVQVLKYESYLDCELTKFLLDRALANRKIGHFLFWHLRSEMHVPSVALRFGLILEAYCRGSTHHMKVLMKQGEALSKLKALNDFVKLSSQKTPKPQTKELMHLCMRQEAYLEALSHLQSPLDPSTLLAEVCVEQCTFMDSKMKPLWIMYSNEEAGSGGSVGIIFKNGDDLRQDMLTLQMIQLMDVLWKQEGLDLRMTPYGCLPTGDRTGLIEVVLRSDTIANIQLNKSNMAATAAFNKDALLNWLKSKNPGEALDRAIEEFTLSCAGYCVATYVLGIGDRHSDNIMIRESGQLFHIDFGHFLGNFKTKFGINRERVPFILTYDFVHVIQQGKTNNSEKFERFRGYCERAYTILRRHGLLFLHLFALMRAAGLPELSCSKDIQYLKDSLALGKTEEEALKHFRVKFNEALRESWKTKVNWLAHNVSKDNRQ
T4 sequence (P27986 whole entry partner): as the sequence (P27986 whole entry partner) above

T1 sequence (P42336 whole entry): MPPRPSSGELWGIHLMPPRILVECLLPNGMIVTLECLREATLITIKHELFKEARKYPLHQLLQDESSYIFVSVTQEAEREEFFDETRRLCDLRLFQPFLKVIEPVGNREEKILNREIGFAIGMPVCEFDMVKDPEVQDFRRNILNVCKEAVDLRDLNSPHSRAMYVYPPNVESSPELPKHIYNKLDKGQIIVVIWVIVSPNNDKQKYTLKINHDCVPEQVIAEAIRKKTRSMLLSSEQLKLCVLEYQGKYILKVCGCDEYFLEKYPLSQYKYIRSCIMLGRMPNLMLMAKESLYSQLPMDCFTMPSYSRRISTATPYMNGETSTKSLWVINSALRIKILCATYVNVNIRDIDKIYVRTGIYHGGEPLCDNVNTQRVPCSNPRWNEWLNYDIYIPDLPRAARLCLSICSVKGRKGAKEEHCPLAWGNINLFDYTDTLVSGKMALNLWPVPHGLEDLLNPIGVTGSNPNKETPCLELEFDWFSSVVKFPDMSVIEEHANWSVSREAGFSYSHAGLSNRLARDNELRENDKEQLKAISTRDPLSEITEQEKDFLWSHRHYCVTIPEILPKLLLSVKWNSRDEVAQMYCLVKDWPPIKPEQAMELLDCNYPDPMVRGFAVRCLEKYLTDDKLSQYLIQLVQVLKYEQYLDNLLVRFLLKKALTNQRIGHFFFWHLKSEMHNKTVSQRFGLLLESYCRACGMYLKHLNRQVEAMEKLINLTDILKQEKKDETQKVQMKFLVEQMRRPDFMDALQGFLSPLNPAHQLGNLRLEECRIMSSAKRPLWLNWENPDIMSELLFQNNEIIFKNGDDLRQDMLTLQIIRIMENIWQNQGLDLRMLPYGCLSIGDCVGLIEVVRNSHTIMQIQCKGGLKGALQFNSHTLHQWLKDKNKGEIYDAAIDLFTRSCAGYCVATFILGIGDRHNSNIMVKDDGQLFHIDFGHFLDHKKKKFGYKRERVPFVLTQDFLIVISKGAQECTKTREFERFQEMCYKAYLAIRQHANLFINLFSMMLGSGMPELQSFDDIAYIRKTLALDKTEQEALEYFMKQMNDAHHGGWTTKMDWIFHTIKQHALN
T1 sequence (P27986 whole entry partner): as the sequence (P27986 whole entry partner) above

Compound	pIC50 (PI3K α (p110α/p85α))	pIC50 (PI3K β (p110β/p85α))	pIC50 (PI3K γ (p110γ))	pIC50 (PI3K δ)
Nc1nc2cc(-c3ccc4ncc(NC5CCOCC5)nc4c3)ccc2o1 [Compound 96]	> 7.00	> 5.00	> 7.00	> 6.00
Nc1nc2cc(-c3ccc4ncc(C(=O)N5CCOCC5)cc4c3)ccc2o1 [Compound 97]	> 5.00	< 5.00	< 5.00	< 5.00
Nc1nc2cc(-c3ccc4ncc(N5CCS(=O)(=O)CC5)nc4c3)ccc2o1 [Compound 98]	> 7.00	< 5.00	> 7.00	< 5.00
Nc1nc2cc(-c3ccc4ncc(N5CCC(O)CC5)nc4c3)ccc2o1 [Compound 99]	> 7.00	> 5.00	> 6.00	> 6.00
Nc1nc2cc(-c3ccc4ncc(N5CCN(CCO)CC5)nc4c3)ccc2o1 [Compound 100]	> 7.00	> 7.00	> 6.00	> 5.00
CC(C)N1CCC(Nc2ncnc3ccc(-c4ccc5oc(N)nc5c4)cc23)CC1 [Compound 101]	> 7.00	> 5.00	> 5.00	> 6.00
CC(C)(C#N)c1ccc(Nc2ncnc3ccc(-c4ccc5oc(N)nc5c4)cc23)cc1 [Compound 102]	> 7.00	> 6.00	> 7.00	> 6.00
CN1CCN(C(=O)c2cnc3ccc(-c4ccc5oc(N)nc5c4)nn23)CC1 [Compound 104]	> 5.00	< 5.00	> 5.00	< 5.00
Nc1nc2cc(-c3ccc4ncc(C(=O)N5CCOCC5)n4n3)ccc2o1 [Compound 105]	> 6.00	> 5.00	> 6.00	< 5.00
C[C@@H]1CN(C(=O)c2cnc3ccc(-c4ccc5oc(N)nc5c4)cn23)C[C@H](C)O1 [Compound 106]	> 5.00	< 5.00	> 5.00	< 5.00
Nc1nc2cc(-c3ccc4ncc(-c5cnn(CCO)c5)nc4c3)ccc2o1 [Compound 108]	> 7.00	> 5.00	> 7.00	< 5.00
Nc1nc2cc(-c3ccc4ncc(S(=O)(=O)N5CCOCC5)n4c3)ccc2o1 [Compound 109]	< 5.00	< 5.00	< 5.00	< 5.00
CN1CCN(S(=O)(=O)c2cnc3ccc(-c4ccc5oc(N)nc5c4)cn23)CC1 [Compound 110]	< 5.00	< 5.00	< 5.00	< 5.00
Nc1nc2cc(-c3ccc4ncc(C(=O)N5CCNCC5)n4c3)ccc2o1 [Compound 111]	> 7.00	> 5.00	< 5.00	< 5.00
CS(=O)(=O)N1CCN(C(=O)c2cnc3ccc(-c4ccc5oc(N)nc5c4)cn23)CC1 [Compound 112]	> 7.00	< 5.00	> 6.00	> 5.00
CC(=O)N1CCN(C(=O)c2cnc3ccc(-c4ccc5oc(N)nc5c4)cn23)CC1 [Compound 113]	> 7.00	< 5.00	> 6.00	< 5.00
Nc1nc2ccc(-c3ccc4ncc(N5CCOCC5)nc4c3)cc2s1 [Compound 114]	> 7.00	< 5.00	> 6.00	< 5.00
CN1CCN(c2cnc3ccc(-c4ccc5nc(N)sc5c4)cc3n2)CC1 [Compound 115]	> 7.00	> 7.00	> 5.00	< 5.00
Nc1nc2cc(-c3ccc4ncc(N5CCOCC5)nc4c3)ccc2s1 [Compound 116]	> 7.00	> 6.00	> 6.00	< 5.00
Nc1nc2ccc(-c3ccc4ncc(N5CCOCC5)nc4c3)cc2o1 [Compound 117]	> 7.00	> 6.00	> 6.00	< 5.00
CNC(=O)CN1CCN(c2cnc3ccc(-c4ccc5oc(N)nc5c4)cc3n2)CC1 [Compound 120]	> 7.00	> 6.00	< 5.00	> 5.00
Nc1nc2cc(-c3cn4c(C(=O)N5CCOCC5)cnc4cn3)ccc2o1 [Compound 122]	< 5.00	< 5.00	< 5.00	< 5.00
CN1CCN(C(=O)c2cnc3cnc(-c4ccc5oc(N)nc5c4)cn23)CC1 [Compound 123]	> 5.00	< 5.00	< 5.00	< 5.00
Nc1nc2ccc(-c3ccc4ncc(C(=O)N5CCOCC5)n4c3)cc2o1 [Compound 124]	> 6.00	> 6.00	> 6.00	< 5.00
Nc1nc2ccc(-c3ccc4ncc(C(=O)N5CCOCC5)n4c3)cc2s1 [Compound 125]	> 6.00	< 5.00	> 6.00	> 5.00
Nc1nc2cc(-c3ccc4ncc(C(=O)N5CCOCC5)n4c3)ccc2s1 [Compound 126]	> 6.00	> 5.00	> 6.00	< 5.00
